# From patent publication US20100035926A1, “PYRAZOLE DERIVATIVES AS NON-STEROIDAL GLUCOCORTICOID RECEPTOR LIGANDS” (priority 2006, published 2010)
# Where two headings read alike, the source gives them in different places.
# Tests used:
# GR [1] = target: T1, GR (Homo sapiens, UniProt P04150); experiment: GR Functional Assay - NFκB Assay (A549 SPAP cells, TNFα stimulated); type: cell-based; details: for Emax: agonists, read-out: average maximum asymptote in the NFkB assay
# T1 construct: endogenous in cells; host or cells: A549 (human lung carcinoma, ECACC No. 86012804), stably transfected with reporter plasmids only
# T1 sequence (P04150 1-777): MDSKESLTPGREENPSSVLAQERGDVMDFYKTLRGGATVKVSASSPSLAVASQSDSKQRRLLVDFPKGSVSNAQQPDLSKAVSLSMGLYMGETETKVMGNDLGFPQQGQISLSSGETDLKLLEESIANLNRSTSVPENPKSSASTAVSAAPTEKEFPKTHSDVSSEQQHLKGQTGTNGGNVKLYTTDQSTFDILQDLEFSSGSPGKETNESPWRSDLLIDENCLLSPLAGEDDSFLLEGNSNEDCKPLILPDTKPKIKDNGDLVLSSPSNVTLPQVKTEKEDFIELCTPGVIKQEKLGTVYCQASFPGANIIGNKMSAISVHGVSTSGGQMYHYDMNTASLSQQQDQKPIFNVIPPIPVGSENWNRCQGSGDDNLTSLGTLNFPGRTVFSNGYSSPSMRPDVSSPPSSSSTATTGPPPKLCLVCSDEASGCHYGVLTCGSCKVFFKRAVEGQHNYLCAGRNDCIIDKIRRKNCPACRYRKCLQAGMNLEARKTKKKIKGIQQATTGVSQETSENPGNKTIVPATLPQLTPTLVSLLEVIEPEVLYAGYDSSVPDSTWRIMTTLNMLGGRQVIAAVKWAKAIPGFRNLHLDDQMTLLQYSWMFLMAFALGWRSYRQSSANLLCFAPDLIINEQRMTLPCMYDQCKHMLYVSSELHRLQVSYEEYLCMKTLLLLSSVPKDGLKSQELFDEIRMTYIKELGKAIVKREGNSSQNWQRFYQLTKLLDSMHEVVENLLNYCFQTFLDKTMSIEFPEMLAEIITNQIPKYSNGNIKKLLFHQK
# Procedure: Stimulation of the cell line with TNFα results in intracellular signal transduction and ultimately translocation of NFκB into the nucleus. This activates the inserted DNA sequence resulting in transcription of the integrated SPAP gene, which is quantified using a calorimetric assay. […] The stably transfected cell line was grown as a monolayer in DMEM supplemented with FCS-HI (10%), Non-essential amino acids (1%), L-Glutamine (2 mM), Pen/Strep (1%) and Geneticin (50 mg/ml).
# A 70% confluent T225 flask of A549 SPAP cells was harvested by centrifugation for 5 mins at 200 g, resuspended in assay buffer (DMEM supplemented with 10% FCS 2×HI, 2 mM L-Glutamine, 1% Pen/Strep and Non essential amino acids) and diluted to 0.16×10^6/ml. 60 μl of cell solution was dispensed to each well of clear Nunc 384-well plates, containing compound at the required concentration. […] Plates were equilibrated to room temperature for 1 hr prior to the addition of 25 μl of pNPP buffer (1M Diethanolamine pH 9.8, 0.5 mM MgCl2, 0.28M NaCl, 2 mg/ml pNPP) to each well of assay plates.
# glucocorticoid receptor = target: T2, glucocorticoid receptor (Homo sapiens, UniProt P04150); experiment: Glucocorticoid Receptor Binding Assay (fluorescence polarisation, displacement of Alexa 555 labelled dexamethasone derivative); details: at least once in this assay; read-out: glucocorticoid binding pIC50 (converted)
# T2 construct: a partially purified full length glucocorticoid receptor
# T2 sequence (P04150 1-777): T1 sequence (P04150 1-777)
# Procedure: Compounds were solvated and diluted in DMSO, and transferred directly into assay plates. Fluorescent dexamethasone and a partially purified full length glucocorticoid receptor were added to the plates, together with buffer components to stabilise the GR protein and incubated at room temperature for 2 hr in the dark. Binding of each compound was assessed by analysing the displacement of fluorescent ligand by measuring the decrease in fluorescence polarisation signal from the mixture.
# GR [2] = target: T1, GR; experiment: GR Agonist Assay - MMTV Assay (A549 MMTV cells, renilla luciferase reporter); type: cell-based; details: 6 h, agonists, read-out: average maximum asymptote in the MMTV agonist assay
# Procedure: Stimulation of the cell line with GR agonists results in intracellular signal transduction and ultimately translocation of GR into the nucleus. This activates the inserted DNA sequence resulting in transcription of the integrated luciferase gene, which is quantified using a light emission. The stably transfected cell line was grown as a monolayer in DMEM supplemented with FCS-HI (10%), Non-essential amino acids (1%), L-Glutamine (2 mM), Pen/Strep (1%) and Geneticin (50 mg/ml).
# A 90% confluent T175 flask of A549 MMTV cells was harvested by centrifugation for 5 min at 200 g, resuspended in assay buffer (DMEM supplemented with 10% FCS 2×HI, 2 mM Glutamax, Non essential amino acids and 25 mM HEPES) and diluted to 0.1×10^6/ml. 70 μl of cell solution was dispensed to each well of white Nunc 384-well plates, containing compound at the required concentration. […] The plates were covered to protect the reagents from light, and then incubated at room temperature for approximately 15 mins before reading them on a Viewlux.
# [3] = at least once in the NFkB assay, A549 SPAP cells, read-out: pIC50 in the NFkB assay (converted)
# [4] = at least once, examples listed as agonists in NFkB and MMTV assays, read-out: potency pIC50 in the NFKB assay (converted)
SMILES,Emax (GR [1]; A549 SPAP cells),IC50 (GR [1]; [3]),IC50 (GR [1]; [4]),IC50 (glucocorticoid receptor),Emax (GR [2])
"CCN(CC(O)(CNC(=O)c1cnn(-c2ccc(F)cc2)c1N)C(F)(F)F)C(=O)c1cccc(F)c1Cl (racemic) [Example 18 (racemic), 5-amino-N-(2-{[[(2-chloro-3-fluorophenyl)car-bonyl](ethyl)amino]methyl}-3,3,3-trifluoro-2-hydroxypropyl)-1-(4-fluorophenyl)-1H-pyrazole-4-carboxamide]",≥ 40%,< 1000 nM,< 316 nM,< 1000 nM,≥ 40%
"CCN(CC(O)(CNC(=O)c1cnn(-c2ccc(F)cc2)c1N)C(F)(F)F)C(=O)c1cccc(C(F)(F)F)c1 (racemic) [Example 20 (racemic), 5-amino-N-{2-[(ethyl{[3-(trifluoromethyl)phenyl]carbonyl}amino)methyl]-3,3,3-trifluoro-2-hydroxypropyl}-1-(4-fluorophenyl)-1H-pyrazole-4-carboxamide]",≥ 40%,< 1000 nM,< 316 nM,< 1000 nM,≥ 40%
"CCN(CC(O)(CNC(=O)c1cnn(-c2ccc(F)cc2)c1N)C(F)(F)F)C(=O)c1ccc(F)cc1Cl (racemic) [Example 23 (racemic), 5-amino-N-(2-{[[(2-chloro-4-fluorophenyl)car-bonyl](ethyl)amino]methyl}-3,3,3-trifluoro-2-hydroxypropyl)-1-(4-fluorophenyl)-1H-pyrazole-4-carboxamide]",≥ 40%,< 1000 nM,< 316 nM,< 1000 nM,≥ 40%
"CC(=O)c1ccccc1C(=O)N(C)CC(O)(CNC(=O)c1cnn(-c2ccc(F)cc2)c1N)C(F)(F)F (racemic) [Example 27 (racemic), N-(2-{[[(2-acetylphenyl)car-bonyl](methyl)amino]methyl}-3,3,3-trifluoro-2-hydroxypropyl)-5-amino-1-(4-fluorophenyl)-1H-pyrazole-4-carboxamide]",≥ 40%,< 1000 nM,< 316 nM,< 1000 nM,≥ 40%
"CN(CC(O)(CNC(=O)c1cnn(-c2ccc(F)cc2)c1N)C(F)(F)F)C(=O)c1ccccc1C(F)(F)F (racemic) [Example 28 (racemic), 5-amino-1-(4-fluorophenyl)-N-{3,3,3-trifluoro-2-hydroxy-2-[(methyl{[2-(trifluoromethyl)phenyl]carbonyl}amino)methyl]propyl}-1H-pyrazole-4-carboxamide]",≥ 40%,< 1000 nM,< 316 nM,< 1000 nM,≥ 40%
"CCN(CC(O)(CNC(=O)c1cnn(-c2ccc(Cl)cc2)c1N)C(F)(F)F)C(=O)c1ccccc1 (racemic) [Example 32 (racemic), 5-amino-1-(4-chlorophenyl)-N-(2-{[ethyl(phenylcarbonyl)amino]methyl}-3,3,3-trifluoro-2-hydroxypropyl)-1H-pyrazole-4-carboxamide]",≥ 40%,–,< 316 nM,< 1000 nM,≥ 40%
"CCN(CC(O)(CNC(=O)c1cnn(-c2cc(F)cc(F)c2)c1N)C(F)(F)F)C(=O)c1ccccc1 (racemic) [Example 33 (racemic), 5-amino-1-(3,5-difluorophenyl)-N-(2-{[ethyl(phenylcarbonyl)amino]methyl}-3,3,3-trifluoro-2-hydroxypropyl)-1H-pyrazole-4-carboxamide]",≥ 40%,–,< 316 nM,< 1000 nM,≥ 40%
"CCN(CC(O)(CNC(=O)c1cnn(-c2ccc(F)cc2)c1N)C(F)(F)F)C(=O)c1ccccc1F (single isomer, unassigned) [Example 4 Enantiomer 2, 5-Amino-N-[2-({ethyl[(2-fluorophenyl)carbonyl]amino}methyl)-3,3,3-trifluoro-2-hydroxypropyl]-1-(4-fluorophenyl)-1H-pyrazole-4-carboxamide]",≥ 40%,–,< 316 nM,< 1000 nM,≥ 40%

# Continued, values first:
Emax (GR [1]; A549 SPAP cells),IC50 (GR [1]; [3]),IC50 (GR [1]; [4]),IC50 (glucocorticoid receptor),Emax (GR [2]),SMILES
≥ 40%,–,< 316 nM,< 1000 nM,≥ 40%,"CCN(CC(O)(CNC(=O)c1cnn(-c2cccc(F)c2)c1N)C(F)(F)F)C(=O)c1ccccc1 (racemic) [Example 35 (racemic), 5-amino-N-(2-{[ethyl(phenylcarbonyl)amino]methyl}-3,3,3-trifluoro-2-hydroxypropyl)-1-(3-fluorophenyl)-1H-pyrazole-4-carboxamide]"
≥ 40%,–,< 316 nM,< 1000 nM,≥ 40%,"CCN(CC(O)(CNC(=O)c1cnn(-c2cccc(Cl)c2)c1N)C(F)(F)F)C(=O)c1ccccc1 (racemic) [Example 37 (racemic), 5-amino-1-(3-chlorophenyl)-N-(2-{[ethyl(phenylcar-bonyl)amino]methyl}-3,3,3-trifluoro-2-hydroxypropyl)-1H-pyrazole-4-carboxamide]"
≥ 40%,–,< 316 nM,< 1000 nM,≥ 40%,"CCN(CC(O)(CNC(=O)c1cnn(-c2ccc(F)cc2)c1N)C(F)(F)F)C(=O)c1ncccc1F (racemic) [Example 38 (racemic), N-{2-[({[5-amino-1-(4-fluorophenyl)-1H-pyrazol-4-yl]carbonyl}amino)methyl]-3,3,3-trifluoro-2-hydroxypropyl}-N-ethyl-3-fluoro-2-pyridinecarboxamide]"
≥ 40%,–,< 316 nM,< 1000 nM,≥ 40%,"Nc1c(C(=O)NCC(O)(CN(CCF)C(=O)c2ncccc2F)C(F)(F)F)cnn1-c1ccc(F)cc1 (racemic) [Example 40 (racemic), N-{2-[({[5-amino-1-(4-fluorophenyl)-1H-pyrazol-4-yl]carbonyl}amino)methyl]-3,3,3-trifluoro-2-hydroxypropyl}-3-fluoro-N-(2-fluoroethyl)-2-pyridinecarboxamide]"
≥ 40%,–,< 316 nM,< 1000 nM,≥ 40%,"CCN(CC(O)(CNC(=O)c1cnn(-c2ccccc2)c1N)C(F)(F)F)C(=O)c1ccccc1 (racemic) [Example 43 (racemic), 5-amino-N-(2-{[ethyl(phenylcar-bonyl)amino]methyl}-3,3,3-trifluoro-2-hydroxypropyl)-1-phenyl-1H-pyrazole-4-carboxamide]"
